Columns and labels:
[1] = biological target: T1, full-length beta-Catenin (Uniprot ID P35222) (Homo sapiens, UniProt P35222); assay: Fluorescence polarization IC50 (beta-catenin / 5FAM-TCF4 10-53 competition); assay type: binding; conditions: fluorescence polarization; read-out: beta-Catenin FP IC50
T1 construct: 10 nM full-length beta-Catenin (Uniprot ID P35222)
T1 sequence (P35222 1-781): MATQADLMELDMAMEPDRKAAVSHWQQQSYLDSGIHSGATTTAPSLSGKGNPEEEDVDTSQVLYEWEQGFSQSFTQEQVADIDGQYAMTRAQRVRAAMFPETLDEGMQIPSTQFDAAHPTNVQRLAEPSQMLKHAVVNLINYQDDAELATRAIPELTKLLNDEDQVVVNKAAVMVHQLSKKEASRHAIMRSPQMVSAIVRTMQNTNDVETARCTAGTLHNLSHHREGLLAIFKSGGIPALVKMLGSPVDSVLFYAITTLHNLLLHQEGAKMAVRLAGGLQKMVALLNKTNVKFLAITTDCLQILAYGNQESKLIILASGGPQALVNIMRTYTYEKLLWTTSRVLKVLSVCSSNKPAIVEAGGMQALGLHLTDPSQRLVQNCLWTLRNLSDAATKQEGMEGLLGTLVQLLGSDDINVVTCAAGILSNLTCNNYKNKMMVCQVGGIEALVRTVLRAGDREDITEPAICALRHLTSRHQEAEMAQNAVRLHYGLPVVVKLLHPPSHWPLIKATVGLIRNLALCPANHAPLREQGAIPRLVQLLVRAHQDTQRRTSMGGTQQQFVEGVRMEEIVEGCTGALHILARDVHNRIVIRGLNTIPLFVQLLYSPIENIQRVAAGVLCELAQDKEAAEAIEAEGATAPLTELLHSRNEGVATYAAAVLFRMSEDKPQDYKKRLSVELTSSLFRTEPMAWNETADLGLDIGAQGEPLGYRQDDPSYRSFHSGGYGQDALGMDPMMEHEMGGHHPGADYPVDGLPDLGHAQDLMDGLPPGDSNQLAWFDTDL

[2] = biological target: T2, beta-catenin/TCF4 engagement (Homo sapiens, UniProt P35222); assay: Nano-BRET target engagement assay (B-cat-Halo & TCF4-Luc in HEK293 cells); assay type: cell-based; conditions: absolute IC50; read-out: NanoBRET Abs IC50
T2 construct: expressed in transfected cells; host or cells: HEK293
T2 sequence (P35222 1-781): T1 sequence (P35222 1-781)

IC50 [1] [µM] | IC50 [2] [µM] | SMILES
0.015 | > 20 | C[C@@H]1NC(=O)[C@H](C)NC(=O)[C@H](CC(=O)O)NC(=O)[C@H](CC(=O)O)NC(=O)C2(CCCC=CCCCOC(=O)N3CC[C@@](C(=O)N[C@@H](Cc4ccsc4)C(=O)N[C@@H](Cc4csc5ccccc45)C(=O)N[C@@H](CCC(N)=O)C(N)=O)(C3)NC(=O)[C@H](CC(N)=O)NC(=O)[C@H](Cc3ccccc3)NC1=O)CCCC=CCCC(=O)OC1CC(C(=O)N[C@@H](CC(=O)O)C(=O)N[C@@H](CC(C)(C)C)C(=O)N2)N(S(C)(=O)=O)C1 (stereo partly drawn) [I-1574, MeSO2-HypEs5-Asp-Npg-B5-Asp-Asp-Ala-Ala-Phe-Asn-PyrS2-3Thi-BztA-Gln-NH2]
0.011 | > 20 | CC(=O)N1CCC[C@]12CC=CCCCC1(CCCC=CCCCOC(=O)N3CC[C@@](C(=O)N[C@@H](Cc4ccsc4)C(=O)N[C@@H](Cc4csc5ccccc45)C(=O)N[C@@H](CCC(N)=O)C(N)=O)(C3)NC(=O)[C@H](CC(N)=O)NC(=O)[C@H](Cc3ccccc3)NC(=O)[C@H](C)NC(=O)[C@H](C)NC(=O)[C@H](Cc3cccc(-c4nnn[nH]4)c3)NC(=O)[C@H](CC(=O)O)NC1=O)NC(=O)[C@H](CC(C)(C)C)NC(=O)[C@H](CC(=O)O)NC2=O (stereo partly drawn) [I-1578, Ac-PL3-Asp-Npg-B5-Asp-3TzF-Ala-Ala-Phe-Asn-PyrS2-3Thi-BztA-Gln-NH2]
0.039 | > 20 | CC(=O)N1CCC[C@]12CC=CCCCC1(CCCC=CCCCOC(=O)N3CC[C@@](C(=O)N[C@@H](Cc4ccsc4)C(=O)N[C@@H](Cc4csc5ccccc45)C(=O)N[C@@H](CCC(N)=O)C(N)=O)(C3)NC(=O)[C@H](CC(N)=O)NC(=O)[C@H](Cc3ccccc3)NC(=O)[C@H](C)NC(=O)[C@H](C)NC(=O)[C@H](Cc3ccc(-c4nnn[nH]4)cc3)NC(=O)[C@H](CC(=O)O)NC1=O)NC(=O)[C@H](CC(C)(C)C)NC(=O)[C@H](CC(=O)O)NC2=O (stereo partly drawn) [I-1579, Ac-PL3-Asp-Npg-B5-Asp-4TzF-Ala-Ala-Phe-Asn-PyrS2-3Thi-BztA-Gln-NH2]
0.362 | > 20 | CC(=O)N1CCC[C@]12CC=CCCCC1(CCCC=CCCCOC(=O)N3CC[C@@](C(=O)N[C@@H](Cc4ccccc4)C(=O)N[C@@H](Cc4csc5ccccc45)C(=O)N[C@@H](CCC(N)=O)C(N)=O)(C3)NC(=O)[C@H](CC(N)=O)NC(=O)[C@H](Cc3ccccc3)NC(=O)[C@H](C)NC(=O)[C@H](CCCCNC(C)C)NC(=O)[C@H]([C@@H](C)O)NC(=O)[C@H](CC(=O)O)NC1=O)NC(=O)[C@H](CC(C)(C)C)NC(=O)[C@H](CC(N)=O)NC2=O (stereo partly drawn) [I-1602, Ac-PL3-Asn-Npg-B5-Asp-Thr-iPrLys-Ala-Phe-Asn-PyrS2-Phe-BztA-Gln-NH2]
0.049 | 11.9 | CC(=O)N1CCC[C@]12CC=CCCCC1(CCCC=CCCCOC(=O)N3CC[C@@](C(=O)N[C@@H](Cc4ccccc4Cl)C(=O)N[C@@H](Cc4csc5ccccc45)C(=O)N[C@@H](CCCN4CCC(F)(F)CC4)C(N)=O)(C3)NC(=O)[C@H]([C@@H](C)O)NC(=O)[C@H](Cc3ccccc3)NC(=O)[C@H](C)NC(=O)[C@H](C)NC(=O)[C@H](CN(CC(=O)O)CC(F)(F)F)NC(=O)[C@H](CC(=O)O)NC1=O)NC(=O)[C@H](CC(C)(C)C)NC(=O)[C@H](CC(=O)O)NC2=O (stereo partly drawn) [I-1607, Ac-PL3-Asp-Npg-B5-Asp-TfeGA-Ala-Ala-Phe-Thr-PyrS2-2C1F-BztA-F2PipNva-NH2]
0.076 | 15.1 | CC(=O)N1CCC[C@]12CC=CCCCC1(CCCC=CCCCOC(=O)N3CC[C@@](C(=O)N[C@@H](Cc4ccccc4C(F)(F)F)C(=O)N[C@@H](Cc4csc5ccccc45)C(=O)N[C@@H](CCCN4CCC(F)(F)CC4)C(N)=O)(C3)NC(=O)[C@H](CC(C)C)NC(=O)[C@H](Cc3ccccc3)NC(=O)[C@H](C)NC(=O)[C@H](C)NC(=O)[C@H](Cc3cccc(C(=O)O)c3)NC(=O)[C@H](CC(=O)O)NC1=O)NC(=O)[C@H](CC(C)(C)C)NC(=O)[C@H](CC(=O)O)NC2=O (stereo partly drawn) [I-1608, Ac-PL3-Asp-Npg-B5-Asp-3COOHF-Ala-Ala-Phe-Leu-PyrS2-2F3MeF-BztA-F2PipNva-NH2]
0.015 | 6.7 | CC(=O)N1CCC[C@]12CC=CCCCC1(CCCC=CCCCOC(=O)N3CC[C@@](C(=O)N[C@@H](Cc4ccccc4Cl)C(=O)N[C@@H](Cc4csc5ccccc45)C(=O)N[C@@H](CCCN4CCOCC4)C(N)=O)(C3)NC(=O)[C@H]([C@@H](C)O)NC(=O)[C@H](Cc3ccccc3)NC(=O)[C@H](C)NC(=O)[C@H](C)NC(=O)[C@H](CN(CC(=O)O)CC(F)(F)F)NC(=O)[C@H](CC(=O)O)NC1=O)NC(=O)[C@H](CC(C)(C)C)NC(=O)[C@H](CC(=O)O)NC2=O (stereo partly drawn) [I-1609, Ac-PL3-Asp-Npg-B5-Asp-TfeGA-Ala-Ala-Phe-Thr-PyrS2-2C1F-BztA-MorphNva-NH2]
0.019 | 4.1 | CC(=O)N1CCC[C@]12CC=CCCCC1(CCCC=CCCCOC(=O)N3CC[C@@](C(=O)N[C@@H](Cc4ccccc4C(F)(F)F)C(=O)N[C@@H](Cc4csc5ccccc45)C(=O)N[C@@H](CCCN4CCOCC4)C(N)=O)(C3)NC(=O)[C@H](CC(C)C)NC(=O)[C@H](Cc3ccccc3)NC(=O)[C@H](C)NC(=O)[C@H](C)NC(=O)[C@H](Cc3cccc(C(=O)O)c3)NC(=O)[C@H](CC(=O)O)NC1=O)NC(=O)[C@H](CC(C)(C)C)NC(=O)[C@H](CC(=O)O)NC2=O (stereo partly drawn) [I-1610, Ac-PL3-Asp-Npg-B5-Asp-3COOHF-Ala-Ala-Phe-Leu-PyrS2-2F3MeF-BztA-MorphNva-NH2]
0.01 | 9.8 | CC(=O)N1CCC[C@]12CC=CCCCC1(CCCC=CCCCOC(=O)N3CC[C@@](C(=O)N[C@@H](Cc4ccccc4Cl)C(=O)N[C@@H](Cc4csc5ccccc45)C(=O)N[C@@H](CC(=O)N4CCN(C)CC4)C(N)=O)(C3)NC(=O)[C@H]([C@@H](C)O)NC(=O)[C@H](Cc3ccccc3)NC(=O)[C@H](C)NC(=O)[C@H](C)NC(=O)[C@H](CN(CC(=O)O)CC(F)(F)F)NC(=O)[C@H](CC(=O)O)NC1=O)NC(=O)[C@H](CC(C)(C)C)NC(=O)[C@H](CC(=O)O)NC2=O (stereo partly drawn) [I-1611, Ac-PL3-Asp-Npg-B5-Asp-TfeGA-Ala-Ala-Phe-Thr-PyrS2-2C1F-BztA-MePpzAsn-NH2]
0.009 | 5.2 | CC(=O)N1CCC[C@]12CC=CCCCC1(CCCC=CCCCOC(=O)N3CC[C@@](C(=O)N[C@@H](Cc4ccccc4Cl)C(=O)N[C@@H](Cc4csc5ccccc45)C(=O)N[C@@H](CC(=O)N4CCOCC4)C(N)=O)(C3)NC(=O)[C@H]([C@@H](C)O)NC(=O)[C@H](Cc3ccccc3)NC(=O)[C@H](C)NC(=O)[C@H](C)NC(=O)[C@H](CN(CC(=O)O)CC(F)(F)F)NC(=O)[C@H](CC(=O)O)NC1=O)NC(=O)[C@H](CC(C)(C)C)NC(=O)[C@H](CC(=O)O)NC2=O (stereo partly drawn) [I-1613, Ac-PL3-Asp-Npg-B5-Asp-TfeGA-Ala-Ala-Phe-Thr-PyrS2-2C1F-BztA-MorphAsn-NH2]
0.015 | 6.4 | CC(=O)N1CCC[C@]12CC=CCCCC1(CCCC=CCCCOC(=O)N3CC[C@@](C(=O)N[C@@H](Cc4ccccc4C(F)(F)F)C(=O)N[C@@H](Cc4csc5ccccc45)C(=O)N[C@@H](CC(=O)N4CCOCC4)C(N)=O)(C3)NC(=O)[C@H](CC(C)C)NC(=O)[C@H](Cc3ccccc3)NC(=O)[C@H](C)NC(=O)[C@H](C)NC(=O)[C@H](Cc3cccc(C(=O)O)c3)NC(=O)[C@H](CC(=O)O)NC1=O)NC(=O)[C@H](CC(C)(C)C)NC(=O)[C@H](CC(=O)O)NC2=O (stereo partly drawn) [I-1614, Ac-PL3-Asp-Npg-B5-Asp-3COOHF-Ala-Ala-Phe-Leu-PyrS2-2F3MeF-BztA-MorphAsn-NH2]
0.009 | 8 | CC(=O)N1CCC[C@]12CC=CCCCC1(CCCC=CCCCOC(=O)N3CC[C@@](C(=O)N[C@@H](Cc4ccccc4Cl)C(=O)N[C@@H](Cc4csc5ccccc45)C(=O)N[C@@H](CCCCNC(C)C)C(N)=O)(C3)NC(=O)[C@H]([C@@H](C)O)NC(=O)[C@H](Cc3ccccc3)NC(=O)[C@H](C)NC(=O)[C@H](C)NC(=O)[C@H](CN(CC(=O)O)CC(F)(F)F)NC(=O)[C@H](CC(=O)O)NC1=O)NC(=O)[C@H](CC(C)(C)C)NC(=O)[C@H](CC(=O)O)NC2=O (stereo partly drawn) [I-1615, Ac-PL3-Asp-Npg-B5-Asp-TfeGA-Ala-Ala-Phe-Thr-PyrS2-2C1F-BztA-iPrLys-NH2]
0.013 | > 20 | CCN(CC(=O)O)C[C@@H]1NC(=O)[C@H](CC(=O)O)NC(=O)C2(CCCC=CCCCOC(=O)N3CC[C@@](C(=O)N[C@@H](Cc4ccccc4Cl)C(=O)N[C@@H](Cc4csc5ccccc45)C(=O)N[C@@H](CCC(N)=O)C(N)=O)(C3)NC(=O)[C@H](CC(N)=O)NC(=O)[C@H](Cc3ccccc3)NC(=O)[C@H](C)NC(=O)[C@H](C)NC1=O)CCCC=CC[C@]1(CCCN1C(C)=O)C(=O)N[C@@H](CC(=O)O)C(=O)N[C@@H](CC(C)(C)C)C(=O)N2 (stereo partly drawn) [I-1622, Ac-PL3-Asp-Npg-B5-Asp-[Et]GA-Ala-Ala-Phe-Asn-PyrS2-2C1F-BztA-Gln-NH2]
